Values joined by “and” are separate entries in the source; they are usually repeats but may differ in a detail not shown here. Equal entries are not always repeated.
Key:
Type in all cases: in vivo, CD-1 mice
[1] = test system: TPA-stimulated epidermal DNA synthesis in mouse epidermis; assay: TPA-induced epidermal DNA synthesis in mouse epidermis, oral fluasterone; settings: 20 h
Experimental: In dose-response experiments the anti-hyperplastic efficacy of fluasterone in TPA-treated mouse epidermis to determine bioavailability following different routes of administration was measured. Mice were treated with a single dose of fluasterone (either orally, subcutaneously, or transdermally) followed by a single application of TPA to the shaved back one hour latter. In case of transdermal administration, fluasterone is applied in a topical formulation to the shaved abdomen to allow for systemic absorption to the back of the animal. Twenty hours after TPA application, the mice are injected with 60 μCi of [3H] thymidine, sacrificed 20 minutes later, and a 2×2 cm2 of skin from the shaved back is excised and processed for the determination of the amount of [3H] thymidine incorporated per unit of epidermal DNA. (Hennings et. al., Cancer Res. 28:543-552, 1968).
Fluasterone suspensions were prepared using sesame oil as vehicle. Micronized fluasterone was obtained from Pharmaceutics International, Inc. Five suspensions were prepared—100 mg/kg (13 mg/mL), 200 mg/kg (26.5 mg/mL), 400 mg/kg (52.4 mg/mL), 800 mg/kg (105.5 mg/mL), and 1200 mg/kg (158.3 mg/mL). The fluasterone for each suspension was weighed, placed into a plastic vial, and the required volume of sesame oil was added to the vial. The fluasterone was suspended in the sesame oil with the use of a Tekmar Tissumizer. Magnetic stirrer bars were added to the various suspensions which were stirred on a magnetic stirrer prior to treatment. Control and TPA groups received sesame oil alone.
Female CD-1 mice were obtained from Charles River Laboratories, Wilmington, Mass. at 35-37 days of age.
The mice were housed three per cage in plastic shoebox cages on Alphacel bedding with 12 hours of alternating light and dark in the CAF Animal Facility. The mice had ad libitum access to Purina 5.015 chow and acidified tap water (pH≦2.6). The mice were shaved, weighed and distributed into groups of three. • Control The mice were treated orally with 0.2 mL of sesame oil. One hour after treatment with sesame oil, the mice were treated topically with 0.2 mL of acetone. • TPA The mice were treated orally with 0.2 mL of sesame oil. […] One hour after treatment with fluasterone, the mice were treated topically with 2 μg of TPA in 0.2 mL of acetone.
The mice were sacrificed 20 hours after treatment by an overdose of CO2. Twenty minutes prior to sacrifice, the mice were injected with 60 μCi of [^3H]thymidine (Amersham). The mice were treated with a depilatory to remove any residual hair. A 2×2 cm^2 piece of skin was excised, placed in ice water for 30 seconds, then in 55° C. water for 30 seconds, then in ice water again for 30 seconds. The epidermis was s raped off using a scalpel and the scrapings were placed into ice cold 0.4N TCA. The scrapings were homogenized using a Tekmar Tissumizer (80% power for 30 seconds). The homogenates were centrifuged for 20 minutes at 3,000×g. The precipitates were washed 3× with 0.2N TCA. The TCA was removed and the precipitates were stored at −20° C. overnight. The next day, the precipitates were washed 2× with absolute ethanol. The DNA in each sample was hydrolyzed with 0.5N TCA for 30 minutes at 90°. The tubes were centrifuged for 20 minutes at 3000×g. A 0.2 mL aliquot of each hydrolysate was counted in a LKB Rackbeta scintillation counter using Scintiverse II BD as the counting medium. DNA content was determined by the Burton diphenylamine assay.
102.7 mg of Micronized fluasterone I was weighed using a Mettler AE-50 balance, transferred to a glass scintillation vial, and homogenized in 6.0 mL of carboxymethylcellulose-Tween 80 using a Tekmar Tissumizer (200 mg/kg micronized I suspension, 200 MI). 88.4 mg of micronized fluasterone II was then weighed, transferred to a glass scintillation vial, and homogenized in 5.2 mL of CMC-Tween using a Tekmar Tissumizer (200 mg/kg micronized II suspension, 200 MII).

[2] = test system: TPA-stimulated epidermal DNA synthesis in mouse epidermis; assay: as above; settings: Table 20; TPA 2 μg topical after sesame oil and suspension vehicle p.o. only; 20 h; group mean
[3] = test system: TPA-stimulated epidermal DNA synthesis in mouse epidermis; assay: TPA-induced epidermal DNA synthesis in mouse epidermis, transdermal fluasterone; settings: 20 h
[4] = Table 18, TPA 2 μg topical after CMC-Tween p.o. only, single mice
[5] = TPA 2 μg (back) after Cremophor EL vehicle only, single mice
[6] = TPA 2 μg (back) after Cremophor EL:ethanol (50:50 v/v) vehicle only, single mice
[7] = TPA 2 μg (back) after Tween 80:ethanol (50:50 v/v) vehicle only, single mice
[8] = TPA 2 μg (back) after carbitol vehicle only, single mice
[9] = TPA 2 μg (back) after ethanol:limonene:isopropyl myristate (81:15:4) vehicle only, single mice
[10] = TPA 2 μg (back) after ethanol:limonene:isopropyl myristate (81:15:4) vehicle only, single mice and group mean
[11] = TPA 2 μg (back) after ethanol:water:Tween 80 (76:19:5) vehicle only, single mice
[12] = TPA 2 μg (back) after ethanol:water:Tween 80 (76:19:5) vehicle only, single mice and group mean

CCCCCCCCCCCCCC(=O)O[C@@H]1[C@@H](C)[C@@]2(O)[C@@H](C=C(CO)C[C@]3(O)C(=O)C(C)=C[C@@H]23)[C@@H]2C(C)(C)[C@]12OC(C)=O [TPA, 12-O-tetradecanoylphorbol-13-acetate, reference compound]
μg DNA ([1]; Table 4, TPA 2 μg topical, sesame oil p.o. only, 2×2 cm2 skin, group mean): 14.1 ± 1.3 µg | cpm/μg DNA ([1]; Table 4, TPA 2 μg topical, sesame oil p.o. only, group mean): 641.5 ± 115.2 cpm/μg DNA | corrected cpm [1, 4]: 9,877 cpm and 8,235 cpm and 8,699 cpm | μg DNA/0.2 ml [1, 4]: 28.0 μg DNA/0.2 ml and 31.9 μg DNA/0.2 ml and 28.2 μg DNA/0.2 ml | cpm/μg DNA ([1]; Table 18, TPA 2 μg topical after CMC-Tween p.o. only, single mice and group mean): 351.6 cpm/μg DNA and 258.6 cpm/μg DNA and 308.5 cpm/μg DNA | cpm/μg DNA ([1]; Table 18, TPA 2 μg topical after CMC-Tween p.o. only, single mice and group mean, group mean): 306.1 ± 46.8 cpm/μg DNA | μg DNA ([1]; Table 20, TPA 2 μg topical after sesame oil and suspension vehicle p.o. only, group mean): 13.9 ± 0.3 µg | cpm/μg DNA [2]: 374.1 ± 16.8 cpm/μg DNA | dpm/μg DNA [2]: 603.4 ± 36.8 dpm/μg DNA | corrected cpm [3, 5]: 16,842 cpm and 13,849 cpm | cpm [3, 5]: 16,877 cpm and 13,884 cpm | μg DNA/0.2 mL [3, 5]: 28.7 μg DNA/0.2 mL and 30.4 μg DNA/0.2 mL | cpm/μg DNA ([3]; TPA 2 μg (back) after Cremophor EL vehicle only, single mice and group mean): 586.8 cpm/μg DNA and 455.6 cpm/μg DNA and 521.2 ± 92.8 cpm/μg DNA | corrected cpm [3, 6]: 54,709 cpm and 54,308 cpm | cpm [3, 6]: 54,744 cpm and 54,343 cpm | μg DNA/0.2 [3, 6]: 36.9 μg DNA/0.2 and 35.7 μg DNA/0.2 | cpm/μg DNA ([3]; TPA 2 μg (back) after Cremophor EL:ethanol (50:50 v/v) vehicle only, single mice and group mean): 1,482.6 cpm/μg DNA and 1,521.2 cpm/μg DNA | corrected cpm [3, 7]: 4,276 cpm and 3,114 cpm | cpm [3, 7]: 4,301 cpm and 3,139 cpm | μg DNA/0.2 [3, 7]: 17.5 μg DNA/0.2 and 18.6 μg DNA/0.2 | cpm/μg DNA ([3]; TPA 2 μg (back) after Tween 80:ethanol (50:50 v/v) vehicle only, single mice and group mean): 244.3 cpm/μg DNA and 167.4 cpm/μg DNA | corrected cpm [3, 8]: 6,729 cpm and 7,496 cpm | cpm [3, 8]: 6,764 cpm and 7,531 cpm | μg DNA/0.2 mL [3, 8]: 20.3 μg DNA/0.2 mL and 21.2 μg DNA/0.2 mL | corrected cpm [3, 9]: 8,545 cpm and 11,109 cpm | cpm [3, 9]: 8,574 cpm and 11,138 cpm | cpm/μg DNA [3, 10]: 277.4 cpm/μg DNA and 322.0 cpm/μg DNA | μg DNA/0.2 mL [3, 10]: 30.8 μg DNA/0.2 mL and 34.5 μg DNA/0.2 mL | corrected cpm [3, 11]: 7,274 cpm and 6,557 cpm | cpm [3, 11]: 7,303 cpm and 6,586 cpm | cpm/μg DNA [3, 12]: 208.4 cpm/μg DNA and 186.3 cpm/μg DNA | μg DNA/0.2 mL [3, 12]: 34.9 μg DNA/0.2 mL and 35.2 μg DNA/0.2 mL
